Key:
[1] = tested on: PrP^Sc load in ScN2a-cl3 cells; assay type: cell-based, murine
[2] = mouse, in vivo

| Compound | Antiprion activity (in words) [1] | further results |
| --- | --- | --- |
| COc1ccc(-c2csc(Nc3cccc(C)n3)n2)cc1OC [Compound 4, [4-(3,4-dimethoxyphenyl)-thiazol-2-yl]-(6-methylpyridin-2-yl)-amine] | equipotent to 3 |  |
| Cc1csc(Nc2cc3ccccc3cn2)n1 [Compound 36, Isoquinolin-3-yl-(4-methylthiazol-2-yl)-amine] | inactive |  |
| FC(F)(F)Oc1ccc(-c2csc(Nc3cc4ccccc4cn3)n2)cc1 [Compound 31, Isoquinolin-3-yl-[4-(4-trifluoromethoxyphenyl)-thiazol-2-yl]-amine] | inactive |  |
| Cc1ccc(Nc2nc(C)cs2)nc1 [Compound 29, (5-Methylpyridin-2-yl)-(4-methylthiazol-2-yl)-amine] | inactive |  |
| Cc1ccc(Nc2nc(-c3cc(-c4ccccc4)no3)cs2)nc1 [Compound 27, (5-Methylpyridin-2-yl)-[4-(3-phenylisoxazol-5-yl)-thiazol-2-yl]-amine] |  | Mean brain concentration in excess of in vitro EC50 ([2]; FVB): ≤ 25 fold; Brain versus plasma concentration [2]: generally exceeded those in plasma |
| CNc1nc(-c2ccc(OC)c(OC)c2)cs1 [Compound 5, 4-(3,4-dimethoxyphenyl)-N-methyl-1,3-thiazol-2-amine] | without significant activity |  |
| [4-(3,4-dimethoxyphenyl)-thiazol-2-yl]-pyridin-3-yl-amine [Compound 7] |  | EC50 ([1]; read-out: ScN2a-cl3 EC50): 1220 nM |
